{"source": "patent US11234982B2", "about": "“Methods for treating ocular surface pain” (NOVARTIS AG, priority 2019, dated 2022)", "tested_on": "patients undergoing photorefractive keratectomy (PRK) surgery", "experiment": "PRK study: adverse events", "type": "in vivo, human", "protocol": "The study was a proof of concept, double-masked, randomized, vehicle-controlled study of compound I administered as eye drops in addition to standard of care treatment in patients after PRK surgery. PRK surgery was performed as an outpatient procedure under topical anesthesia with removal of the corneal epithelium to expose the stroma for the laser ablation. Compound I dosing was as single eye drop of 2.5% (25 mg/ml, 0.925 mg/drop), administered four times daily (every six hours) in one eye from immediate post-op (time 0) to last dose at 72 hours.\nSafety assessments consisted of collecting all AEs, SAEs, with their severity and relationship to study drug. Only signs and symptoms greater than the listed ranges of either severity or duration were reported as AEs.\nAdverse events and serious adverse events included an assessment of both systemic and ocular assessments. Systemic safety assessments included regular assessments of height and weight, vital signs, reporting medication errors including misuse/abuse, pregnancy reporting and early phase safety monitoring. The misuse/abuse, pregnancy reporting and early phase safety monitoring were not assessed for the study. Ocular safety assessments included the following: • Best-corrected visual acuity (BCVA) and uncorrected visual acuity (UCVA): Was measured at each visit using an ETDRS visual acuity chart at 4 meters (13 feet) or 1 meter (for patients that cannot read the 4 meter chart). The BCVA scoring was done based on the number of correctly read letters plus 30. If visual acuity was so poor that the patient could not read any of the largest letters at 1 meter, count fingers and hand movement vision and light perception was tested. • Intraocular Pressure (TOP): IOP measurements were conducted with applanation tonometry or Tonopen. • Dilated fundus exam: The dilated fundus examination included ophthalmoscopic assessments of the vitreous, retina/macula/choroid, and optic nerve. Evaluations for retinal tear/detachment, retinal hemorrhage, vitreous hemorrhage density, vitreous haze grading and abnormal findings were done and scored according to grading criteria. • Ocular hyperemia: Conjunctival redness of the bulbar conjunctiva in each eye at the slit lamp according to the McMonnies redness scale was graded. […] By adjusting the calibrated slit beam width and height, the maximum horizontal (wound width) and vertical dimensions (wound height) of the surgical epithelial wound was estimated. The evaluation was performed until wound closure and report of wound size as 0 horizontal and 0 vertical dimensions. • Slit-lamp biomicroscopy: Ocular signs (eyelids/conjunctiva, cornea, lens, and iris/anterior chamber) was assessed in both eyes by slit lamp biomicroscopy according to the grading criteria. • Blink rate: A blink was defined as a bilateral paroxysmal closure of the eyelids (duration<1 second) in the absence of a provoking external stimulus. Each blink assessment lasted for 2 min (or as close to 2 minutes as possible with minimum time 1 minute) and the obtained blink rate was averaged to calculate blink rate in blinks/min. • Tear production (Schirmer's test without anesthesia): The test was performed without anesthetic in both eyes simultaneously. Tear secretion was measured in millimeters of the length of strip wetted by tears. […] The strip was wetted with 1 drop of sterile saline and flicked to remove excess saline. The patient blinked several times to ensure dispersion of the dye throughout the tear film prior to grading on a scale of 0-3 (0=Normal, No staining; 1=Mild, Superficial stippling micropunctate staining; 2=Moderate, Macropunctate staining with some coalescent areas and 3=Severe, Numerous coalescent macropunctate areas and/or patches) for each of 5 zones (central plus 4 quadrants).", "note": "“Also recorded” adds a separate entry of the source.", "data": [{"smiles": "CC(C)c1nc2cc(O)ccc2c(=O)n1-c1ccc(C#N)cc1", "note": "[Compound I, 4-(7-hydroxy-2-isopropyl-4-oxo-4H-quinazolin-3-yl)-benzonitrile]", "values": [{"measurement": "Non-ocular AE Arthralgia: Procedure related", "setting": "Compound I 2.5%", "result": "no"}, {"measurement": "Non-ocular AE Arthralgia: Severity", "setting": "Compound I 2.5%", "result": "mild"}, {"measurement": "Non-ocular AE Headache: Procedure related", "setting": "Compound I 2.5%", "result": "no"}, {"measurement": "Non-ocular AE Headache: Severity", "setting": "Compound I 2.5%", "result": "mild"}, {"measurement": "Non-ocular AE Nasopharyngitis: Procedure related", "setting": "Compound I 2.5%", "result": "no"}, {"measurement": "Non-ocular AE Nasopharyngitis: Severity", "setting": "Compound I 2.5%", "result": "mild, mild"}, {"measurement": "Non-ocular AE Oropharyngeal Pain: Procedure related", "setting": "Compound I 2.5%", "result": "no"}, {"measurement": "Non-ocular AE Oropharyngeal Pain: Severity", "setting": "Compound I 2.5%", "result": "mild"}, {"measurement": "Non-ocular AE Pyrexia: Procedure related", "setting": "Compound I 2.5%", "result": "no"}, {"measurement": "Non-ocular AE Pyrexia: Severity", "setting": "Compound I 2.5%", "result": "moderate"}, {"measurement": "Non-ocular AE Sinus Congestion: Procedure related", "setting": "Compound I 2.5%", "result": "no"}, {"measurement": "Non-ocular AE Sinus Congestion: Severity", "setting": "Compound I 2.5%", "result": "moderate"}, {"measurement": "Non-ocular AE Sinusitis: Procedure related", "setting": "Compound I 2.5%", "result": "no"}, {"measurement": "Non-ocular AE Sinusitis: Severity", "setting": "Compound I 2.5%", "result": "moderate"}, {"measurement": "Non-ocular AE Vomiting: Procedure related", "setting": "Compound I 2.5%", "result": "no"}, {"measurement": "Non-ocular AE Vomiting: Severity", "setting": "Compound I 2.5%", "result": "moderate"}, {"measurement": "Ocular AE Corneal Opacity: Procedure related", "setting": "Compound I 2.5%", "result": "yes"}, {"measurement": "Ocular AE Corneal Opacity: Severity", "setting": "Compound I 2.5%", "result": "mild"}, {"measurement": "Ocular AE Posterior Vitreous Detachment: Procedure related", "setting": "Compound I 2.5%", "result": "no"}, {"measurement": "Ocular AE Posterior Vitreous Detachment: Severity", "setting": "Compound I 2.5%", "result": "mild"}, {"measurement": "Ocular AE Punctate Keratitis: Procedure related", "setting": "Compound I 2.5%", "result": "yes"}, {"measurement": "Ocular AE Punctate Keratitis: Severity", "setting": "Compound I 2.5%", "result": "mild"}, {"measurement": "Non-ocular AE Arthralgia: patients", "setting": "Compound I 2.5%, N = 40", "result": "1 (2.5) n (%)"}, {"measurement": "Non-ocular AE Headache: patients", "setting": "Compound I 2.5%, N = 40", "result": "1 (2.5) n (%)"}, {"measurement": "Non-ocular AE Nasopharyngitis: patients", "setting": "Compound I 2.5%, N = 40", "result": "2 (5.0) n (%)"}, {"measurement": "Non-ocular AE Oropharyngeal Pain: patients", "setting": "Compound I 2.5%, N = 40", "result": "1 (2.5) n (%)"}, {"measurement": "Non-ocular AE Pyrexia: patients", "setting": "Compound I 2.5%, N = 40", "result": "1 (2.5) n (%)"}, {"measurement": "Non-ocular AE Sinus Congestion: patients", "setting": "Compound I 2.5%, N = 40", "result": "1 (2.5) n (%)"}, {"measurement": "Non-ocular AE Sinusitis: patients", "setting": "Compound I 2.5%, N = 40", "result": "1 (2.5) n (%)"}, {"measurement": "Non-ocular AE Tinnitus: patients", "setting": "Compound I 2.5%, N = 40", "result": "0 n (%)"}, {"measurement": "Non-ocular AE Vomiting: patients", "setting": "Compound I 2.5%, N = 40", "result": "1 (2.5) n (%)"}, {"measurement": "Number of AEs", "setting": "Compound I 2.5%, N = 40", "result": 12}, {"measurement": "Number of drug-related AEs", "setting": "Compound I 2.5%, N = 40", "result": 0}, {"measurement": "Number of mild severity AEs", "setting": "Compound I 2.5%, N = 40", "result": 8}, {"measurement": "Number of moderate severity AEs", "setting": "Compound I 2.5%, N = 40", "result": 4}, {"measurement": "Number of non-ocular AEs", "setting": "Compound I 2.5%, N = 40", "result": 9}, {"measurement": "Number of ocular AEs", "setting": "Compound I 2.5%, N = 40", "result": 3}, {"measurement": "Number of procedure-related AEs", "setting": "Compound I 2.5%, N = 40", "result": 2}, {"measurement": "Number of severe AEs", "setting": "Compound I 2.5%, N = 40", "result": 0}, {"measurement": "Ocular AE Corneal Infiltrate: patients", "setting": "Compound I 2.5%, N = 40", "result": "0 n (%)"}, {"measurement": "Ocular AE Corneal Opacity: patients", "setting": "Compound I 2.5%, N = 40", "result": "1 (2.5) n (%)"}, {"measurement": "Ocular AE Posterior Vitreous Detachment: patients", "setting": "Compound I 2.5%, N = 40", "result": "1 (2.5) n (%)"}, {"measurement": "Ocular AE Punctate Keratitis: patients", "setting": "Compound I 2.5%, N = 40", "result": "1 (2.5) n (%)"}, {"measurement": "Patients with at least one AE", "setting": "Compound I 2.5%, N = 40", "result": "8 (20) n (%)"}, {"measurement": "Patients with at least one non-ocular AE", "setting": "Compound I 2.5%, N = 40", "result": "6 (15) n (%)"}, {"measurement": "Patients with at least one ocular AE", "setting": "Compound I 2.5%, N = 40", "result": "3 (7.5) n (%)"}, {"measurement": "Differences in safety between compound I and Vehicle", "setting": "PRK study", "result": "no observed clinically meaningful differences in safety"}, {"measurement": "Deaths, SAEs, discontinuations due to AEs", "setting": "PRK study, 2.5% four times daily for 72 hours", "result": "no deaths or SAEs or discontinuation of the drug or discontinuation from the study due to AEs; also recorded: no deaths, or serious or severe AEs, treatment discontinuations or study discontinuations"}]}]}
